In patent publication US5753661A, “Fused benzo compounds containing a nitrogen heterocycle for the treatment of central nervous system disorders” (priority 1992, dated 1998):

molecular target: T1, 5-HT1A receptor (Rattus norvegicus, UniProt P19327); assay: Inhibition of 3H-8-OH-DPAT binding to serotonin 5-HT1A receptors in rat brain in vitro; set-up: 5-HT1A receptors in membranes from rat brain minus cerebellum; from tissue; host or cells: rat brain minus cerebellum, membranes; settings: not given
T1 sequence (P19327 1-422): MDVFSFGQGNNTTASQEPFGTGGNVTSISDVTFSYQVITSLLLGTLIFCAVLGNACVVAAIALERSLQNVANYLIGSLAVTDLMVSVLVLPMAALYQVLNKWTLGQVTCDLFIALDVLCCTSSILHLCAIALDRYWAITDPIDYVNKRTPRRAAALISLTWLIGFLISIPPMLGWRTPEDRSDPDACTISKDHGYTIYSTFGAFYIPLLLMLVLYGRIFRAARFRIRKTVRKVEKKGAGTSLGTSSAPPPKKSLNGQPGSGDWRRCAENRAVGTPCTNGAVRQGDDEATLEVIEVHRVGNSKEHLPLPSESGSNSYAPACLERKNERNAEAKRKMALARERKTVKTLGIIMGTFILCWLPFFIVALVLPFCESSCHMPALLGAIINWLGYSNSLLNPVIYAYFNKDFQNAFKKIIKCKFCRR
Description: Inhibition of ^3 H-8-OH-DPAT Binding to Serotonin 5-HT1A Receptors in Rat Brain in vitro.
By this method the inhibition by drugs of the binding of the 5-HT1A agonist 3H-8-OH-DPAT (1 nM) to 5-HT1A receptors in membranes from rat brain minus cerebellum is determined in vitro . Accordingly, this is a test for affinity for the 5-HT1A receptor. The assay was performed as described by Hyttel et al., Drug Dev. Res. 1988, 15, 389-404.

**Q.** With `CC1(C)Cc2cccc(C3=CCN(CCCCN4CCN(C5CCCCC5)C4=O)CC3)c2O1` [Compound 10a, 1-Cyclohexyl-3-[4-[4-(2,3-dihydro-2,2-dimethylbenzofuran-7-yl)-1,2,3,6-tetrahydropyrid-1-yl]-1-butyl]-2-imidazolidinone] as the compound, how does the IC50 read?
**A.** 1.2 nM

same assay, conditions: 3H-8-OH-DPAT 1 nM; membranes from rat brain minus cerebellum; read-out: IC50, 3H 8-OH-DPAT binding

**Q.** `O=C1N(CCN2CCN(c3cccc4ccsc34)CC2)CCN1c1ccccc1` [Compound 2t, 1-[2-(4-Benzo[b]thiophen-7-yl-1-piperazinyl)ethyl]-3-phenyl-2-imidazolidinone] was tested. Which IC50 did it give?
**A.** 15 nM

**Q.** How did the IC50 turn out when `O=C1N(CCN2CCN(c3cccc4c3OCC4)CC2)CCN1c1ccc(F)cc1` [Compound 2i, 1-[2-[4-(2,3-Dihydrobenzofuran-7-yl)-1-piperazinyl]ethyl]-3-(4-fluorophenyl)-2-imidazolidinone] was run?
**A.** 30 nM

**Q.** `NC(=O)c1cc2c(N3CCN(CCN4CCN(C5CCCC5)C4=O)CC3)cccc2o1` [Compound 8a, 4-[4-[2-(3-Cyclopentyl-2-imidazolidinon-1-yl)ethyl]-1-piperazinyl]-2-benzofuranylcarboxamide] was tested. Which IC50 did it give?
**A.** 3.9 nM

**Q.** How did the IC50 turn out when `O=C1N(CCCN2CCN(c3cccc4c3OCCO4)CC2)CCN1C1CCCCC1` [Compound 4c, 1-[3-[4-(1,4-Benzodioxan-5-yl)-1-piperazinyl]-1-propyl]-3-cyclohexyl-2-imidazolidinone] was run?
**A.** 19 nM

**Q.** For `O=C1N(CCN2CCN(c3cccc4[nH]ccc34)CC2)CCN1c1ccccc1` [Compound 2z, 1-[2-[4-(4-Indolyl)-1-piperazinyl]ethyl]-3-phenyl-2-imidazolidinone], which IC50 is on record?
**A.** 34 nM

**Q.** `CC1(C)Cc2cccc(N3CCN(CCCCCCN4CCN(C5CCCC5)C4=O)CC3)c2O1` [Compound 2nn, 1-Cyclopentyl-3-[6-[4-(2,3-dihydro-2,2-dimethylbenzofuran-7-yl)-1-piperazinyl]-1-hexyl]-2-imidazolidinone] was tested. Which IC50 did it give?
**A.** 5.4 nM

**Q.** Which IC50 does the source give for `CC1(C)Cc2cccc(N3CCN(CCCCN4CCN(C56CC7CC(CC(C7)C5)C6)C4=O)CC3)c2O1` [Compound 2gg, 1-Adamantyl-3-[4-[4-(2,3-dihydro-2,2-dimethylbenzofuran-7-yl)-1-piperazinyl]-1-butyl]-2-imidazolidinone] here?
**A.** 2.8 nM

**Q.** Which IC50 does the source give for `O=C1N(CCCCN2CCN(c3cc(Cl)cc4cc(-c5ccccc5)oc34)CC2)CCN1C1CCCCC1` [Compound 2hh, 1-[4-[4-(5-Chloro-2-phenylbenzofuran-7-yl)-1-piperazinyl]-1-butyl]-3-cyclohexyl-2-imidazolidinone] here?
**A.** 130 nM

**Q.** Which IC50 does the source give for `CCN1CCN(CCCN2CCN(c3cccc4c3OCCO4)CC2)C1=O` [Compound 4b, 1-[3-[4-(1,4-Benzodioxan-5-yl)-1-piperazinyl]-1-propyl]-3-ethyl-2-imidazolidinone] here?
**A.** 40 nM

**Q.** With `CCOC(=O)c1cc2c(N3CCN(CCN4CCN(C5CCCC5)C4=O)CC3)cccc2o1` [Compound 2cc, Ethyl [4-[4-[2-(3-cyclopentyl-2-imidazolidinon-1-yl)ethyl]-1-piperazinyl]-2-benzofuranyl] carboxylate] as the compound, how does the IC50 read?
**A.** 83 nM

**Q.** With `O=C1N(CCN2CCN(c3cc(Cl)cc4cc(-c5ccccc5)oc34)CC2)CCN1C1CCCC1` [Compound 2ii, 1-[2-[4-(5-Chloro-2-phenylbenzofuran-7-yl)-1-piperazinyl]ethyl]-3-cyclopentyl-2-imidazolidinone] as the compound, how does the IC50 read?
**A.** 300 nM

**Q.** `CC1(C)Cc2cccc(N3CCN(CCCCN4CCN(c5ccc(F)cc5)C4=O)CC3)c2O1` [Compound 2dd, 1-[4-[4-(2,3-Dihydro-2,2-dimethylbenzofuran-7-yl)-1-piperazinyl]-1-butyl]-3-(4-fluorophenyl)-2-imidazolidinone] was tested. Which IC50 did it give?
**A.** 0.5 nM

**Q.** Which IC50 does the source give for `O=C1N(CCN2CCN(c3cccc4ccccc34)CC2)CCN1c1ccccc1` [Compound 2k, 1-[2-[4-(1-Naphtyl)-1-piperazinyl]ethyl]-3-phenyl-2-imidazolidinone] here?
**A.** 15 nM

**Q.** `O=c1n(CCCCN2CCN(c3cccc4c3OCCO4)CC2)c2ccccc2n1-c1ccc(F)cc1` [Compound 13a, 1-[4-[4-(1,4-Benzodioxan-5-yl)-1-piperazinyl]-1-butyl]-3-(4-fluorophenyl)-2(3H)-benzimidazolone] was tested. Which IC50 did it give?
**A.** 22 nM

**Q.** With `CC1(C)Cc2cccc(N3CCN(CCCCN4CCN(c5cccc6ccccc56)C4=O)CC3)c2O1` [Compound 2jj, 1-[4-[4-(2,3-Dihydro-2,2-dimethylbenzofuran-7-yl)-1-piperazinyl]-1-butyl]-3-(1-naphtyl)-2-imidazolidinone] as the compound, how does the IC50 read?
**A.** 1.1 nM

**Q.** Which IC50 does the source give for `CC1(C)Cc2cc(F)cc(N3CCN(CCCCN4CCN(C5CCCCC5)C4=O)CC3)c2O1` [Compound 2mm] here?
**A.** 1.7 nM

**Q.** How did the IC50 turn out when `O=C1N(CCN2CCN(c3cccc4cc[nH]c34)CC2)CCN1c1ccccc1` [Compound 2v, 1-[2-[4-(7-Indolyl)-1-piperazinyl]ethyl]-3-phenyl-2-imidazolidinone] was run?
**A.** 71 nM

**Q.** How did the IC50 turn out when `CC1(C)COc2c(N3CCN(CCCCCCN4CCN(C5CCCC5)C4=O)CC3)cccc21` [Compound 14c] was run?
**A.** 7.5 nM

**Q.** `O=C1N(CCCN2CCN(c3cccc4c3OCCO4)CC2)CCN1Cc1ccccc1` [Compound 4a, 1-[3-[4-(1,4-Benzodioxan-5-yl)-1-piperazinyl]-1-propyl]-3-benzyl-2-imidazolidinone] was tested. Which IC50 did it give?
**A.** 18 nM

**Q.** With `CC1(C)Cc2cccc(C3CCN(CCCCN4CCN(C5CCCCC5)C4=O)CC3)c2O1` [Compound 11a, 1-Cyclohexyl-3-[4-[4-(2,3-dihydro-2,2-dimethylbenzofuran-7-yl)-1-piperidinyl]-1-butyl]-2-imidazolidinone] as the compound, how does the IC50 read?
**A.** 3.5 nM

**Q.** `O=C1N(CCN2CCN(c3cccc4cnsc34)CC2)CCN1c1ccccc1` [Compound 2x, 1-[2-[4-(1,2-Benzisothiazol-7-yl)-1-piperazinyl]ethyl]-3-phenyl-2-imidazolidinone] was tested. Which IC50 did it give?
**A.** 75 nM

**Q.** How did the IC50 turn out when `CC1(C)COc2c(N3CCN(CCN4CCN(C5CCCC5)C4=O)CC3)cccc21` [Compound 14b] was run?
**A.** 38 nM

**Q.** `CC1(C)Cc2cc(F)cc(N3CCN(CCCCN4CCN(c5ccc(F)cc5)C4=O)CC3)c2O1` [Compound 2ll, 1-[4-[4-(2,3-Dihydro-2,2-dimethyl-5-fluorobenzofuran-7-yl)-1-piperazinyl]-1-butyl]-3-(4-fluorophenyl)-2-imidazolidinone] was tested. Which IC50 did it give?
**A.** 10 nM

**Q.** `CCN1CCN(CCN2CCN(c3cccc4c3OCCO4)CC2)C1=O` [Compound 2l, 1-[2-[4-(1,4-Benzodioxan-5-yl)-1-piperazinyl]ethyl]-3ethyl-2-imidazolidinone] was tested. Which IC50 did it give?
**A.** 72 nM

**Q.** `CC1(C)Cc2c(cccc2N2CCN(CCCN3CCN(C4CCCCC4)C3=O)CC2)O1` [Compound 14d] was tested. Which IC50 did it give?
**A.** 22 nM

**Q.** `O=c1n(CCN2CCN(c3cccc4c3OCCO4)CC2)ccn1-c1ccccc1` [Compound 5b, 1-[3-[4-(1,4-Benzodioxan-5-yl)-1-piperazinyl]-ethyl]-1,3-dihydro-3-phenyl-2-imidazolone] was tested. Which IC50 did it give?
**A.** 12 nM

**Q.** How did the IC50 turn out when `O=C1N(CCN2CCN(c3cccc4c3OCCO4)CC2)CCN1C12CC3CC(CC(C3)C1)C2` [Compound 2q, 1-Adamantyl-3-[2-[4-(1,4-benzodioxan-5-yl)-1-piperazinyl]ethyl]-2-imidazolidinone] was run?
**A.** 13 nM

**Q.** Which IC50 does the source give for `O=c1n(CCN2CCN(c3cccc4c3OCCO4)CC2)c2ccccc2n1-c1ccc(F)cc1` [Compound 12a, 1-[2-[4-(1,4-Benzodioxan-5-yl)-1-piperazinyl]ethyl]-3-(4-fluorophenyl)-2(3H)-benzimidazolone] here?
**A.** 36 nM

**Q.** `CC1(C)COc2c(N3CCN(CCN4CCN(C5CCCC5)C4=O)CC3)cc(Cl)cc21` [Compound 2oo] was tested. Which IC50 did it give?
**A.** 44 nM

**Q.** Which IC50 does the source give for `O=C1N(CCN2CCN(c3cccc4occc34)CC2)CCN1c1ccccc1` [Compound 2r, 1-[2-(4-Benzofuran-4-yl-1-piperazinyl)ethyl]-3-phenyl-2-imidazolidinone] here?
**A.** 23 nM

**Q.** For `O=C1N(CCN2CCN(c3cccc4cc[nH]c34)CC2)CCN1C1CCCC1` [Compound 2u, 1-Cyclopentyl-3-[2-[4-(7-indolyl)-1-piperazinyl]ethyl]-2-imidazolidinone], which IC50 is on record?
**A.** 110 nM

**Q.** How did the IC50 turn out when `CC1(C)Cc2c(N3CCN(CCCN4CCN(C5CCCCC5)C4=O)CC3)ccc(Cl)c2O1` [Compound 2qq] was run?
**A.** 300 nM

**Q.** Which IC50 does the source give for `O=C1N(CCN2CCN(c3cccc4cc(-c5ccccc5)oc34)CC2)CCN1C1CCCC1` [Compound 14a, 1-Cyclopentyl-3-[2-[4-(2-phenylbenzofuran-7-yl)-1-piperazinyl]ethyl]-2-imidazolidinone] here?
**A.** 9.7 nM

**Q.** With `CCOC(=O)c1cc2cccc(N3CCN(CCN4CCN(c5ccccc5)C4=O)CC3)c2[nH]1` [Compound 2j, Ethyl 7-[4-[2-(3-phenyl-2-imidazoidin-2-on-1-yl)ethyl]-1-piperazinyl]-2-indolyl carboxylate] as the compound, how does the IC50 read?
**A.** 53 nM

**Q.** With `CS(=O)(=O)CCCN1CCN(c2cccc3c2OCC3)CC1` [Compound 1d, 1-(2,3-Dihydrobenzofuran-7-yl)-4-(3-methylsulfonyl-1-propyl)piperazine] as the compound, how does the IC50 read?
**A.** 190 nM

**Q.** Which IC50 does the source give for `CC1(C)Cc2cccc(N3CCN(CCCN4CCN(c5ccccc5)C4=O)CC3)c2O1` [Compound 2ff, 1-[3-[4-(2,3-Dihydro-2,2-dimethylbenzofuran-7-yl)-1-piperazinyl]-1-propyl]-3-phenyl-2-imidazolidinone] here?
**A.** 6.6 nM

**Q.** For `CC(C)(C)N1CCN(CCN2CCN(c3cccc4c3OCCO4)CC2)C1=O` [Compound 2ee], which IC50 is on record?
**A.** 43 nM
